From patent US8075900B2, “Melanoma associated peptide analogues and vaccines against melanoma” (The United States of America, as represented by the …, priority 1996, dated 2011)
pIC50: −log10 of the molar value. Values joined by “and” are separate entries in the source; they are usually repeats but may differ in a detail not shown here. Equal entries are not always repeated. No end group written: not given here.

Tests used:
[1] = system: T2 target cells, gp100-reactive TIL 1200 lymphocytes; assay: Chromium-release assay, target cell sensitization for lysis by TIL 1200; format: cell-based, human; details: E:T 20:1, T2 target cells preincubated 90 min with 1 μM peptide, 5 hours
Description: Chromium release assays were performed as described previously (Bakker et al., 1994, J. Exp. Med. 179:1005). […] Various amounts of effector cells were then added to the target cells in triplicate wells of U bottomed microliter plates (Costar, Badhoevedorp, The Netherlands) in a final volume of […]. […] After 5 h of incubation, part of the supernatant was harvested and its radioactive content was measured. The mean percentage specific lysis of triplicate wells was calculated using the formula: % specific lysis=((experimental release−spontaneous release)÷(maximal release−spontaneous release))×100.

[2] = system: T2 target cells, Melan-A/MART-1 27-35-reactive TIL 1235 lymphocytes; assay: Chromium-release assay, target cell sensitization for lysis by TIL 1235; format: cell-based, human; details: E:T 20:1, T2 target cells preincubated 90 min with 1 μM peptide, 5 hours
[3] = biological target: T1, HLA-A*0201 (Homo sapiens, UniProt P04439, D140Y/D185E/D98H/E176V/E277Q/G131W/G231S/I119V/I121R/I166T/I218V/L300P/L318F/N151K/N90K/P208A/P217A/Q86G/Q94H/R138H/R169H/T345S); assay: Peptide-induced HLA-A*0201 upregulation/stabilization on T2 cells; format: binding
T1 construct: Peptide-induced HLA-A*0201 upregulation on T2 cells was performed as described previously; endogenous in cells; host or cells: T2 cells (processing-defective, HLA-A*0201+)

[4] = biological target: T1, HLA-A*0201; assay: Competition based HLA-A*0201 peptide-binding assay on JY cells; details: competition with Fluorescein labeled reference peptide at 4° C., mild acid treated HLA-A*0201+ B-LCL; read-out: Affinity IC50

| Sequence | target cell lysis by TIL 1200 (% specific lysis) [1] | target cell lysis by TIL 1235 (% specific lysis) [2] | also measured |
| --- | --- | --- | --- |
| KAWGQYWQV | 64% |  |  |
| KTWGQAWQV | 7% |  |  |
| KTWGQYWQA | 76% |  |  |
| AAGIGALTV [alanine-substituted Melan-A/MART-1 27-35 analogue] |  | 2% |  |
| AAGIGILTA [alanine-substituted Melan-A/MART-1 27-35 analogue] |  | 26% | HLA-A*0201 stabilization (Fluorescence Index) ([3]; 25 μM peptide): 1.03; HLA-A*0201 stabilization (Fluorescence Index) ([3]; 50 μM peptide): 1.00 |
| YLEPGPVTA [reference compound] | 3% | −3% and −1% |  |
| AMGIGILTV [Melan-A/MART-1 27-35 N-terminal anchor-replacement analogue] |  | 6% |  |
| KTWAQYWQV | 63% |  |  |
| KIWGQYWQV |  |  | pIC50 [4]: 6.22 |
| KTWGQYWAV |  |  | pIC50 [4]: 6.30 |
| AAGIGILAV [alanine-substituted Melan-A/MART-1 27-35 analogue] |  | 11% |  |
| AVGIGILTV [Melan-A/MART-1 27-35 N-terminal anchor-replacement analogue] |  | 27% |  |
| AIGIGILTV [Melan-A/MART-1 27-35 N-terminal anchor-replacement analogue] |  | 27% | HLA-A*0201 stabilization (Fluorescence Index) ([3]; 25 μM peptide): 1.29; HLA-A*0201 stabilization (Fluorescence Index) ([3]; 50 μM peptide): 1.58 |
| KVWGQYWQV |  |  | pIC50 [4]: 6.10 |
| KTWGAYWQV | 9% |  |  |
| AAGIAILTV [alanine-substituted Melan-A/MART-1 27-35 analogue] |  | 4% |  |
| AAGAGILTV [alanine-substituted Melan-A/MART-1 27-35 analogue] |  | 0% |  |
| KLWGQYWQV |  |  | pIC50 [4]: 6.40 |
| ALGIGILTV [Melan-A/MART-1 27-35 N-terminal anchor-replacement analogue] |  | 16% |  |
| AGGIGILTV [glycine-substituted Melan-A/MART-1 27-35 analogue] |  | 6% |  |
| GAGIGILTV [glycine-substituted Melan-A/MART-1 27-35 analogue] |  | 52% |  |
| AAGIGIATV [alanine-substituted Melan-A/MART-1 27-35 analogue] |  | 6% |  |
| AAAIGILTV [alanine-substituted Melan-A/MART-1 27-35 analogue] |  | 13% |  |
| KTAGQYWQV | 58% |  |  |
| KMWGQYWQV | 57% |  |  |
| KTWGQYAQV | −2% |  |  |
| ATWGQYWQV | 75% |  |  |
